According to patent publication US10683553B2, “Method for determining sensitivity to simultaneous inhibitor against PARP and Tankyrase” (THE ASAN FOUNDATION, priority 2015, dated 2020):

Legend:
Assay type in all cases: cell-based
[1] = system: HCT116 human colon cancer cell line; experiment: DNA damage by r-H2AX immunocytochemistry; conditions: HCT116 (p53 normal type); 50 μM, 48 hours
Excerpt: In order to analyze the degree of DNA damage of Compound A, which is a novel PARP/Tankyrase simultaneous inhibitor when the p53 gene is a normal type, the present inventors treated a novel PARP/Tankyrase simultaneous inhibitor, Compound A, and the competitive drug PARP inhibitor, olaparib, in the HCT116 human colon cancer cell line in which the p53 gene is a normal type, and then the DNA damage was confirmed by immunochemical method as the expression level of r-H2AX. The conditions and methods of the experiment were as follows: HCT116 human colon cancer cell line in which the p53 gene is a normal type was cultured in RPMI1640 (10% FBS, 1% penicillin/streptomycin) and cultured in a 60 mm plate at 1×10^5 per well for 24 hours at 37° C. Compound A, which is a novel PARP/Tankyrase simultaneous inhibitor, and olaparib, which is a competitive drug PARP inhibitor, were treated with 50 μM each and were cultured for 48 hours. […] The r-H2AX antibody was diluted at a ratio of 1:100 in 1% BSA, reacted overnight at 4° C., washed three times for 10 minutes with TBS-T buffer, and the secondary antibody (alexa Fluor®488 fitc) was diluted at a ratio of 1:100 in 1% BSA, reacted at room temperature for 2 hours, and then washed with TBS-T A buffer three times for 10 minutes, and stained with DAPI (4′,6-diamidino-2-phenylindole) to confirm the expression level of r-H2AX under a fluorescence microscope.

[2] = system: SW620 human colon cancer cell line; experiment: Trypan blue apoptosis with overexpressed mutant LIG4 (G833A or T1704C); conditions: SW620 overexpressing LIG4 mutant G833A or T1704C vs control group (empty); 25 μM and 50 μM, 48 hours
Excerpt: In order to analyze the degree of apoptosis of Compound A, which is a novel PARP/Tankyrase simultaneous inhibitor, when the p53 genotype is a mutant type and an LIG4 genotype is a mutant type, the present inventors treated a novel PARP/Tankyrase simultaneous inhibitor, Compound A, and the competitive drug PARP inhibitor, olaparib, while overexpressing an LIG4 mutant type in the SW620 human colon cancer cell line in which the p53 gene is a mutant type and an LIG4 genotype is a normal type. Then, the number of cells was measured by trypan blue staining assay to confirm the degree of apoptosis. The conditions and methods of the above experiment were as follows: SW620 human colon cancer cell line in which the p53 gene is a mutant type and the LIG4 gene is a normal type was cultured in RPMI1640 (10% FBS, 1% penicillin/streptomycin) and cultured in a 60 mm plate at 1×10^5 per well for 24 hours at 37° C. G833A or T1704C plasmid DNA in which an LIG4 genotype is a mutant type was infused into cells by means of Lipofectamin 2000 (Invitrogen), and then overexpressed at 37° C. for 48 hours. Then, the cells were treated with each of 25 μM and 50 μM of Compound A, which is a novel PARP/Tankyrase simultaneous inhibitor and olaparib, a competitive drug PARP inhibitor. After 48 hours of culturing, the number of cells was measured by trypan blue staining and the degree of apoptosis was confirmed.

[3] = system: HCT116 human colon cancer cell line; experiment: Trypan blue apoptosis after siRNA knockdown of DNA repair genes; conditions: HCT116 p53 normal, LIG4 siRNA knockdown; 25 μM and 50 μM, 48 hours
Excerpt: In order to analyze the degree of apoptosis of Compound A, which is a novel PARP/Tankyrase simultaneous inhibitor, depending on the presence or absence of the p53 gene and the presence or absence of the DNA repair gene, the present inventors reduced gene expression by an ATR, XLF, XRCC4 and LIG4 siRNA knockdown method known as a DNA repair gene in the human colon cancer cell line HCT116 in which the p53 normal gene is present, and then treated with Compound A, which is a novel PARP/Tankyrase simultaneous inhibitor. Then, the number of cells was measured by trypan blue staining assay to confirm the degree of apoptosis. As the experimental conditions and methods, the HCT116 p53 null human colon cancer cell line in which the p53 gene is normal and the HCT116 and p53 gene are deficient is cultured in RPMI1640 (10% FBS, 1% penicillin/streptomycin), and 1×10^5 per well was cultured at 37° C. for 24 hours in a 60 mm plate. ATR, XLF, XRCC4 and LIG4 (SEQ ID NO: 4; ATR siRNA 5′-GAGUUCUCAGAAGUCAACC-3′, SEQ ID NO: 5; XLF siRNA 5′-[…]-3′, SEQ ID NO: 6; XRCC4 siRNA 5′-[…]-3′, SEQ ID NO: 7; LIG4 siRNA 5′-GGGAGUGUCUCAUGUAAUA-3′) were infused into cells by means of Lipofectamin 2000 (Invitrogen), and knocked down at 37° C. for 48 hours. […] After 48 hours of culturing, the number of cells was measured by trypan blue staining and the degree of apoptosis was confirmed.

[4] = system: HCT8 human colon cancer cell line; experiment: Western blot of r-H2AX and truncated caspase 3 with overexpressed mutant LIG4; conditions: HCT8 overexpressing LIG4 mutant G833A or T1704C
Description: The present inventors conducted an experiment in the same manner as Example 9 to analyze the degree of apoptosis and DNA damage of Compound A, which is a novel PARP/Tankyrase simultaneous inhibitor, when the p53 genotype is a mutant type and an LIG4 genotype is a mutant type. The number of cells was measured by trypan blue staining method and the degree of apoptosis was confirmed. The cells were obtained using a centrifuge. Each cell thus obtained was dissolved using an RIPA buffer, and the proteins were extracted using a high-speed centrifuge. 30 μg protein per cell was electrophoresed by western blot method to separate proteins and transferred to PDVF membrane. The r-H2AX, truncated caspase 3, and b-actin antibody were diluted with each 1:2000 ratio in 5% skim milk. Then, the cells were reacted at 4° C. for 12 hours and then washed three times for 15 minutes with TBS-T buffer. The secondary antibody was diluted with each 1:2000 ratio in 5% skim milk and reacted at room temperature for 2 hours. It was washed with TBS-T buffer three times for 15 minutes to induce luminescence of PDVF membrane using ECL buffer solution to develop protein expression on each anti-body using an X-ray film.

With `CCOc1cc(CN(C)C)cc2[nH]c(=O)c3c(c12)NCCC3` [Compound A, 8-[(dimethylamino)methyl]-10-ethoxy-1,2,3,4-tetrahydrobenzo[h][1,6]naphthyridin-5(6H)-one] the “DNA damage: expression level of r-H2AX (immunocytochemistry)” value [1] was “higher expression of r-H2AX than the group treated with olaparib”, the “degree of apoptosis (trypan blue cell count)” value [2] was “no change in the apoptosis” and the “degree of apoptosis (trypan blue cell count)” value [3] was “apoptosis is significantly increased”. The “expression amount of truncated caspase 3 (western blot)” value [4] was “also increased” and the “expression of r-H2AX (western blot)” value [4] was “also increased”.
